Read-outs that look alike come from different tables or passages of the source. Some results are limits rather than exact numbers.

The nature of data set [1]: Evaluation of stability in human plasma, HPLC or LC-TOF. Format: in vitro ADME. On the procedure: The stabilities of diverse cyclic carbonate prodrugs (4, 9, 10, 11, 17, 18, 19, 25, 29, 30, 39, 40, and 41), which have a chromosphere for UV detection, in human plasma were tested using HPLC. After the mixture of test compounds and human plasma were incubated at 37° C., the degradation of the compounds was monitored by HPLC (Table 2). […] The peaks of the corresponding diols (3, 24, or 34), which were the compounds that result when only the carbonate moiety of the analogues was hydrolyzed, were not observed. The half-lives of the benzyl or phenyl ester moieties may be shorter than carbonate, under tested conditions for such compounds to be used effectively as prodrugs.
Human plasma (100%, 480 μL) was incubated at 37° C. for 5 min. The stock solution of the test compound (100 mM in acetonitrile, 20 μL) was added to the human plasma, and the mixture was incubated at 37° C. Aliquots (80 μL) of the plasma samples were removed and mixed with an equal volume of acetonitrile. The mixture was stirred vigorously and centrifuged (5500 rpm, 5 min). The supernatant was filtered and the filtrate was analyzed by HPLC or LC-TOF (See below). These tests were conducted two times in each compound.
(§1) Analysis was performed on a Phenomenex® Luna C18 column (250×4.6 mm) eluted with a gradient conditions of acetonitrile and H2O. Detection was by UV absorbance at 257 nm or total count of single ion in Agilent 6210 LC-TOF mass spectra.

Data set [2] in a line: Evaluation of stability in PBS buffer (pH=7.4), HPLC. Format: physicochemical. The conditions noted are these: for half-life at 1 mM: PBS buffer pH=7.4, 37° C., read-out: half-life time (T1/2) in PBS buffer (converted). How it is done: The stabilities of several cyclic carbonate analogues in PBS buffer (pH=7.4) were tested first to determine the standard level of the drug decomposition by media (Table 1). PBS (phosphate buffered saline) buffer is a standard solution used in plasma stability tests. […] After the compounds were incubated in PBS buffer at 37° C., the degradation of the compounds with incubation time was monitored. As the number of fluorines at the C6 position was increased, the half-life time (T1/2) of the molecule was decreased dramatically (4 vs 25 vs 35). T1/2 of the C6-methyl analogue (4) was more than 48 hours and T1/2 of C6-monofluoromethyl analogues (25, 29, and 30) were about 25 hours while T1/2 of C6-trifluoromethyl analogues (35, 39, and 40) were about 5 hours. If the substitution of C-6 position (CH3, CH2F, or CF3) was same, T1/2 of diverse benzyl esters (benzyl, 4-fluorobenzyl, or 2,4-difluorobenzyl) were not dramatically changed. […] These half-lives of benzyl esters and cyclic carbonates in PBS buffer were sufficient to use these promoieties for the penetration of the cell membrane.
The stock solution of the test compound (10 mM in acetonitrile, 50 μL) was added to PBS buffer (pH=7.4, 450 μL), and the mixture was incubated at 37° C. Aliquots of the samples were analyzed directly by HPLC (See below). These tests were conducted two times in each compound.
as §1

The mark [3] stands for this setting: human, human plasma (100%), 37° C., read-out: T1/2 (stabilities of the benzyl amide analogues with acetal, ketal, t-butyl carbonate promoieties in human plasma).
Where [4] appears, read: human, human plasma (100%), 37° C., read-out: half-life (T1/2) in human plasma.
[5] abbreviates: human, human plasma (100%), 37° C., read-out: T1/2 (half-lives of diverse carbonate in human plasma).
[6] abbreviates: read-out: half-life of the ester moieties on the carboxylic acids.

Turning to `CC1(CC(=O)NCc2ccccc2)CCOCO1` (stereo not drawn) [compound 45], the “T1/2 (stabilities of the benzyl amide analogues with acetal, ketal, t-butyl carbonate promoieties in human plasma)” value in data set [1] (37° C.) was over 48 h.

In the case of `CC1(CC(=O)NCc2ccccc2)CCOC(c2ccccc2)O1` (stereo not drawn) [compound 49], the “T1/2 (stabilities of the benzyl amide analogues with acetal, ketal, t-butyl carbonate promoieties in human plasma)” value in data set [1] (37° C.) is given as over 48 h. As to `COc1ccc(C2OCCC(CC(=O)NCc3ccccc3)(C(F)(F)F)O2)cc1` (stereo not drawn) [compound 52], in data set [1] (setting [3]), the half-life at 4 mM is over 2880 min. On to `O=C(CC1(C(F)(F)F)CCOC(=O)O1)OCc1ccc(F)cc1` (stereo not drawn) [compound 39], for which the melting point fell in the range of 84 to 85 °C. In data set [2], the half-life at 1 mM is about 5 h. The “T1/2 (half-lives of diverse carbonate in human plasma)” value in data set [1] (37° C.) is given as under 1 min. Further, the half-life at 4 mM in data set [1] (setting [4]) is under 3 min. As to `O=C(CC1(C(F)(F)F)CCOC(=O)O1)OCc1ccccc1` (stereo not drawn) [compound 35], the melting point was 87.5 to 88 °C. Moreover, the half-life at 1 mM in data set [2] was about 5 h. Moreover, in data set [2] (degradation of 35 in PBS buffer), the “peak of 34 (carbonate moiety decomposition product) in HPLC” value is “not observed”. In addition, in data set [1] (37° C.), the “T1/2 (half-lives of diverse carbonate in human plasma)” value is on record as under 1 min. For the same compound, the half-life at 4 mM in data set [1] (setting [4]) was under 3 min. Regarding `CC1(CC(=O)NCc2ccc(F)cc2)CCOC(=O)O1` (stereo not drawn) [compound 19], the half-life at 4 mM in data set [1] (setting [4]) came to 8 min.

In the case of `CC1(CC(=O)NCc2ccccc2)CCOC(=O)O1` (stereo not drawn) [compound 18], the half-life at 4 mM in data set [1] (setting [4]) was 8 min.

As to `CC1(CC(=O)NCc2ccccc2)CCOC(C)(C)O1` (stereo not drawn) [compound 47], the “T1/2 (stabilities of the benzyl amide analogues with acetal, ketal, t-butyl carbonate promoieties in human plasma)” value in data set [1] (37° C.) is recorded as over 48 h. Consider `CC1(C)OCCC(CC(=O)NCc2ccccc2)(C(F)(F)F)O1` (stereo not drawn) [compound 48], for which the half-life at 4 mM in data set [1] (setting [3]) is over 2880 min. In the case of `COC(=O)CC1(CF)CCOC(=O)O1` (stereo not drawn), the melting point lay within 42 to 42.5 °C.

On to `CC1(CC(=O)Nc2ccccc2)CCOC(=O)O1` (stereo not drawn) [compound 17], for which the half-life at 4 mM in data set [1] (setting [4]) is under 3 min. Turning to `O=C(CC1(C(F)(F)F)CCOC(=O)O1)OCc1ccc(F)cc1F` (stereo not drawn) [compound 40], the half-life at 1 mM in data set [2] is about 5 h. Moreover, in data set [1] (37° C.), the “T1/2 (half-lives of diverse carbonate in human plasma)” value is under 1 min. The half-life at 4 mM in data set [1] (setting [4]) is under 3 min. For `COc1ccc(C2OCCC(CC(=O)NCc3ccccc3)(C(F)(F)F)O2)c(OC)c1` (stereo not drawn) [compound 53], in data set [1] (37° C.), the “T1/2 (stabilities of the benzyl amide analogues with acetal, ketal, t-butyl carbonate promoieties in human plasma)” value was over 48 h.

As for `O=C(CC1(CF)CCOC(=O)O1)OCc1ccccc1` (stereo not drawn) [compound 25], in data set [2], the half-life at 1 mM was about 25 h. Besides, the “T1/2 (half-lives of diverse carbonate in human plasma)” value in data set [1] (37° C.) came out at 2 min. Also, the half-life at 4 mM in data set [1] (setting [4]) is under 3 min.

Consider `CC(=O)OCCC(O)(CF)CC(=O)NCc1ccccc1` (stereo not drawn) [compound 65], for which the half-life at 4 mM in data set [1] (human, human plasma (100%), 37° C., read-out: T1/2 (stabilities of amide and ester analogues in human plasma)) is 20 min; in data set [1] (human, human plasma (100%), read-out: half-life of the acetyl groups on the alcohol), about 20 min.

For `CC(C)(C)OC(=O)OCCC(O)(CC(=O)NCc1ccccc1)C(F)(F)F` (stereo not drawn) [compound 55], the “T1/2 (stabilities of the benzyl amide analogues with acetal, ketal, t-butyl carbonate promoieties in human plasma)” value in data set [1] (37° C.) is given as over 48 h. `CC(O)(CCO)CC(=O)NCc1c(F)c(F)c(F)c(F)c1F` (stereo not drawn) [compound 56]: the “T1/2 (stabilities of amide and ester analogues in human plasma)” value in data set [1] (37° C.) was over 120 min. For `COc1ccc(C2OCCC(CC(=O)NCc3ccccc3)(C(F)(F)F)O2)cc1` (stereo not drawn) [compound 51], in data set [1] (37° C.), the “T1/2 (stabilities of the benzyl amide analogues with acetal, ketal, t-butyl carbonate promoieties in human plasma)” value is on record as over 48 h. As for `O=C(CC1(CF)CCOC(=O)O1)OCc1ccc(F)cc1` (stereo not drawn) [compound 29], the half-life at 1 mM in data set [2] is about 25 h. Moreover, in data set [1] (37° C.), the “T1/2 (half-lives of diverse carbonate in human plasma)” value came out at 2 min. In data set [1] (setting [4]), the half-life at 4 mM is under 3 min. As to `CC1(CC(=O)OCc2ccccc2)CCOC(=O)O1` (stereo not drawn) [compound 4], the half-life at 1 mM in data set [2] was over 48 h. Besides, the half-life at 4 mM in data set [1] (setting [4]) came to 4 min. Turning to `O=C(CC1(CF)CCOC(=O)O1)OCc1ccc(F)cc1F` (stereo not drawn) [compound 30], the half-life at 1 mM in data set [2] was about 25 h. Further, the “T1/2 (half-lives of diverse carbonate in human plasma)” value in data set [1] (37° C.) turned out to be 1 min. Moreover, the half-life at 4 mM in data set [1] (setting [4]) is under 3 min. In the case of `O=C(CC1(C(F)(F)F)CCOC(=O)O1)OCCc1ccccc1` (stereo not drawn) [compound 41], the half-life at 4 mM in data set [1] (setting [5]) was 4 min; in data set [1] (setting [4]), under 3 min. `CCOC(=O)CC(O)(CF)CCOC(C)=O` (stereo not drawn) [compound 64]: the “T1/2 (stabilities of amide and ester analogues in human plasma)” value in data set [1] (37° C.) was found to be 11 min. For the same compound, the half-life at 4 mM in data set [1] (setting [6]) fell in the range of 10 to 22 min. `CC1(CC(=O)Oc2ccc3c(c2)CCC3)CCOC(=O)O1` (stereo not drawn) [compound 11] gave a melting point of 88 to 89 °C. In addition, in data set [1] (setting [5]), the half-life at 4 mM was under 3 min. The half-life at 4 mM in data set [1] (setting [4]) is under 3 min. Consider `CC1(CC(=O)Oc2ccccc2)CCOC(=O)O1` (stereo not drawn) [compound 9], for which the melting point is 62 to 62.5 °C. Moreover, the half-life at 4 mM in data set [1] (setting [4]) is under 3 min. In the case of `O=C(CC1(C(F)(F)F)CCOCO1)NCc1ccccc1` (stereo not drawn) [compound 46], in data set [1] (37° C.), the “T1/2 (stabilities of the benzyl amide analogues with acetal, ketal, t-butyl carbonate promoieties in human plasma)” value is over 48 h. As to `COC(=O)CC(O)(CF)CCOC(C)=O` (stereo not drawn) [compound 63], the “T1/2 (stabilities of amide and ester analogues in human plasma)” value in data set [1] (37° C.) was 10 min. Besides, the half-life at 4 mM in data set [1] (setting [6]) fell in the range of 10 to 22 min. Take `CC1(CC(=O)Oc2ccc(F)cc2)CCOC(=O)O1` (stereo not drawn) [compound 10]: the melting point was 68 to 69 °C. In addition, the half-life at 4 mM in data set [1] (setting [4]) is under 3 min. On to `CC(O)(CCOC(=O)OC(C)(C)C)CC(=O)NCc1ccccc1` (stereo not drawn) [compound 54], for which the “T1/2 (stabilities of the benzyl amide analogues with acetal, ketal, t-butyl carbonate promoieties in human plasma)” value in data set [1] (37° C.) was over 48 h.

With `O=C(CC1(C(F)(F)F)CCOC(c2ccccc2)O1)NCc1ccccc1` (stereo not drawn) [compound 50], in data set [1] (37° C.), the “T1/2 (stabilities of the benzyl amide analogues with acetal, ketal, t-butyl carbonate promoieties in human plasma)” value is reported as over 48 h.

Source of the values: patent US9150534B2, “Prodrugs of fluorinated mevalonates to inhibit the mevalonate pathway of Streptococcus pneumoniae” (Northwestern University, priority 2012, dated 2015).
